Data taken from ChEMBL document CHEMBL1139626, “Total asymmetric synthesis of (-)-conduramine B-1 and of its enantiomer. N-Benzyl derivatives of conduramine B-1 are beta-glucosidase inhibitors” (Bioorg Med Chem Lett, 2005).

Key:
[1] = molecular target: Beta-glucosidase A (Caldicellulosiruptor saccharolyticus, UniProt P10482); assay: Inhibitory concentration against Beta Glucosidase from Caldocellum saccharolyticum
[2] = Inhibitory concentration against Beta Glucosidase from Almonds; design: species or system Prunus dulcis
[3] = Inhibitory activity against Beta Glucosidase from Almonds; design: species or system Prunus dulcis

Beta-glucosidase A, sequence (P10482 whole entry): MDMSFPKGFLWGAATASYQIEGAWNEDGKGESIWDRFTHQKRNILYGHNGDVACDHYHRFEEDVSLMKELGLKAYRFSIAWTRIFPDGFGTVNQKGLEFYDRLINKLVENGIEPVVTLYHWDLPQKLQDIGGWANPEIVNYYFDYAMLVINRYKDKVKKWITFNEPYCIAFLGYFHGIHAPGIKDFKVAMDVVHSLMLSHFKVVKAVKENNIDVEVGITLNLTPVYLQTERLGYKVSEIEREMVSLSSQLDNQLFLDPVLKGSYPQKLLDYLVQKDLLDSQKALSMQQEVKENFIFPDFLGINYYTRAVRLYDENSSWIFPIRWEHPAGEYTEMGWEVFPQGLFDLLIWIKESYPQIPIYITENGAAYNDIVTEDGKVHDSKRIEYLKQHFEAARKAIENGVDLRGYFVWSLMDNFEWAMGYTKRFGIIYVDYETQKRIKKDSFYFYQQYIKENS

| IC50 [1] [µM] | IC50 [2] [µM] | Ki [3] [µM] | Compound |
| --- | --- | --- | --- |
| 185 | 35 |  | OC1C=CC(NCc2ccc(Cl)cc2)C(O)C1O (stereo in doubt; 4h) |
| 52 | 43 | 13 | OC1C=CC(NCc2ccc(Oc3ccccc3)cc2)C(O)C1O (stereo in doubt; 4j) |
